Paper PMC6746264, “Novel tyrosinase inhibitory peptide with free radical scavenging ability” (Journal of Enzyme Inhibition and Medicinal Chemistry, 2019)
“Also recorded” adds a separate entry of the source. No end group written: not given here.

Legend:
[1] = test system: A375 cells; experiment: MTT assay (cell viability); format: cell-based, human; settings: 24 h, inhibitors 2.5 mM in PBS, absorbance 492 nm
Method: (§1) A human melanoma cell line (A375) was provided by the Stem Cell Bank, Chinese Academy of Sciences. The A375 cell line was cultured in DMEM media containing 10% fetal bovine serum and 1% penicillin/streptomycin in an incubator at 37 °C and an atmosphere containing 5% CO2[32].
The A375 cells were seeded at a density of 1 × 10^4 cells per well in a 96-well plate. They were incubated for 24 h at 37 °C under an atmosphere containing 5% CO2. Then, different tyrosinase inhibitors were added into the culture media. After incubation for 24 h, the cell viability was measured using the MTT assay, which was based on the conversion of MTT to formazan crystals by mitochondrial dehydrogenases. Briefly, the cell cultures were incubated with a 20 µl MTT solution (5 mg/mL) for 4 h at 37 °C. The culture supernatant was carefully removed from the well, and 150 µl DMSO was added followed by shaking for 10 min to dissolve the formazan crystals. Absorbance at 492 nm was measured using a microplate reader (VersaMax Microplate Reader)[35]. Cell viability of the control group in which […] was replaced by PBS was defined as 100%[36].

[2] = target: mushroom tyrosinase (Agaricus bisporus, UniProt C7FF04); experiment: Comparison of tyrosinase inhibition rate (maximum reaction rate, IC50); format: biochemical
Sequence of mushroom tyrosinase (C7FF04 1-392): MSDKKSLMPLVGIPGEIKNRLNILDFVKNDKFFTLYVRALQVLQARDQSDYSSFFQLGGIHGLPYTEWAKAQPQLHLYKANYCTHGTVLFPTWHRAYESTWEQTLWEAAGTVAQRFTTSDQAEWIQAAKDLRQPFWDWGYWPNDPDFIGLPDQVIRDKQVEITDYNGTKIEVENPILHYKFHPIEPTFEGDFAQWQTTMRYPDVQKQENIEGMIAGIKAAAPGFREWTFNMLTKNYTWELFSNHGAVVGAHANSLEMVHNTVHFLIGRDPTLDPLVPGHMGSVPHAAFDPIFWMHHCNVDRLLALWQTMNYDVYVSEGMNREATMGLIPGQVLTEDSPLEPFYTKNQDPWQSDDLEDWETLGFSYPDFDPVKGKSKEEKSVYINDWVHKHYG
Method: Figure 2. […] (D) The plot of the percentage of enzyme activity (Vss) vs the […] concentration [I]. IC50 of the inhibitors were directly obtained from the plots.
Before conducting the experiment, all the solutions, 96-well plates, and tips were heated at 37 °C. Equal volumes of tyrosine solutions (final concentration of 2.5 mM) were added to the 96-well plates, mixed with different concentrations of the inhibitors mentioned above and incubated for 10 min at 37 °C. Then, equal volume of the tyrosinase solution (100 U per well) was added to the 96-well plate using a multichannel pipette, which was placed immediately in a microplate reader under shaking conditions for 30 s. Finally, the light absorbance value at 475 nm was recorded at 37 °C continuously for 2 h with intervals of 20 s. The maximum reaction rate of tyrosinase at each concentration of the inhibitor was calculated.

[3] = test system: A375 melanoma cells; experiment: Number of proliferated melanoma cells; format: cell-based, human
Method: Fig. S3. The OD values at 475 nm of the solutions shown in Fig. 1A after storage for 12 months. Error
Fig. S4. Total number of proliferated melanoma cells in the presence of different tyrosinase inhibitors.
The concentration of each inhibitor is 2.5 mM. Error bars represent S.D. N=3. […]

[4] = cited from earlier work
Description: However, the adverse side effects associated with their use have led to restrictions in their applications.

[5] = test system: human melanoma cell line (A375); experiment: Intracellular tyrosinase activity inhibition assay (melanin production); format: cell-based; settings: A375 cells, 60 h, N = 3
Method: as §1
The A375 cells were seeded at a density of 1 × 10^5 cells/well in a 6-well plate and cultured for 12 h. […] After adding 0.5 ml NaOH (1 M), the cells were disrupted by sonication, and incubated at 50 °C for 10 min.

[6] = test system: tyrosinase; experiment: CD spectroscopy; format: binding, mushroom; settings: 200–260 nm, 293.15 K, mixture with tyrosinase, 0.2 mg/ml
Method: The CD measurements were performed at 293.15 K with a bandwidth, step interval and scanning speed of 1.0 nm, 1 nm, and 50 nm min^−1, respectively.
Figure 4.

[7] = 1 mM, comparison among arbutin, glutathione and EF-5

ECGYF [EF-5, ECGYF]
cell viability / toxicity [1]: nontoxic to cells; also recorded: nontoxic to the melanocytes
IC50 relative to IC50 of arbutin ([2]; EF-5 IC50 as fraction of that of arbutin): about 1/12

OC[C@H]1O[C@@H](Oc2ccc(O)cc2)[C@H](O)[C@@H](O)[C@@H]1O [arbutin]
cell viability / toxicity [1]: the inhibitory effect of arbutin on the viability of melanoma cells is significant
total concentration of cells ([3]; A375, arbutin 5 mM group versus EF-5 0.5 mM group): much lesser than that in the EF-5 (0.5 mM) group
inhibition of cell proliferation ([3]; A375 melanoma cells, 2.5 mM, N=3): inhibit proliferation of the cells
contact dermatitis / exogenous ochronosis [4]: contact dermatitis
melanin inhibitory effect [5, 7]: the melanin inhibitory effects of arbutin and glutathione were similar
melanin inhibitory effect ([5]; arbutin 5 mM compared with EF-5 0.5 mM): similar

O=c1cc(CO)occ1O [kojic acid]
carcinogenicity [4]: has demonstrated carcinogenicity

glutathione
change of CD spectrum of tyrosinase [6]: does not show such changes
lag phase of the catalytic reaction of tyrosinase ([2]; 475 nm, 37 °C, compared with arbutin): may significantly increase the lag phase
melanin inhibitory effect [5, 7]: the melanin inhibitory effects of arbutin and glutathione were similar

Oc1ccc(O)cc1 [hydroquinone]
contact dermatitis / exogenous ochronosis [4]: exogenous ochronosis
